Results taken from patent US5668165A, “Small molecule inhibition of RNA/ligand binding” (Scriptgen Pharmaceuticals, Inc., priority 1995, dated 1997).
Entries after “also recorded” stand apart in the source; their conditions may differ. Read-outs that look alike come from different tables or passages of the source. Starred links: 1 amine or outer side, 2 acyl side, 3 side chain; linkers in the order of their positions; H or OH if unused. Positions of bridges follow the written chain, without caps; N, C: chain ends. Non-standard residues stand in square brackets, D forms with d. Residues, ends and D or L forms follow the SMILES beside them. *: point of attachment. X1 = NC1=N[C@@H]([C@H](N[*:1])C(=O)[*:2])C[C@H](O)N1; ΔAla(Z-3-ureido) = NC(=O)N/C=C(\N)C(=O)O; β3hOrn = NCCC[C@H](N)CC(=O)*; Dap = NC[C@H](N)C(=O)O

Tests used:
[1] = target: T1, binding of HIV Rev protein to the HIV RRE (Human immunodeficiency virus type 1 group M subtype B, UniProt P04618); assay: Rev-RRE nitrocellulose filter-binding assay
T1 construct: made in house; host or cells: E. coli
T1 sequence (P04618 whole entry, looked up): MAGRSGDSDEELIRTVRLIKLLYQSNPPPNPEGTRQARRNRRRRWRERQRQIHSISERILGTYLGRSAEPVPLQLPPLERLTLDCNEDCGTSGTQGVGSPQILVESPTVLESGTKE
Protocol: A 69-nt ^32 P-labelled RNA probe containing a high affinity Rev-binding site (Bartel et al., Cell 67:529, 1991 ) was incubated with purified E. coli-derived Rev protein in the absence and presence of increasing concentrations of Compound 15. Reactions conditions were those that maximize the specificity of the interaction between Rev and the RRE, i.e., 150 mM KCl and a 100-fold molar excess of tRNA.
After a 30-minute incubation at room temperature, a nitrocellulose filter-binding assay was performed to quantify the binding of Rev to the RRE (Daly et al., Biochem. 32:10497, 1993). In this assay, RNA is retained on the filter only by virtue of binding to Rev. Filter-associated radioactivity was quantified in a Wallac Microbeta counter. The fraction of input RNA retained on the filter was plotted as a function of Compound 15 concentration, and the IC50 (the concentration required to inhibit 50% Rev-RRE binding) was determined by linear regression.

[2] = system: binding of Rev to the RRE (67-nt RNA probe containing a high affinity Rev-binding site); parameters: species or system HIV; settings: for ability to inhibit Rev binding (inhibitory at any concentration tested): 67-nt 32P-labeled RNA probe, gel mobility shift; for concentration at which inhibitory to Rev binding: third group of aminoglycosides; for inhibiting the binding of Rev to the RRE: Rev/RRE binding inhibition assay, summary of thirteen 2-DOS aminoglycosides
Protocol: To test whether antibiotics can block binding of Rev to the RRE, a 67-nt ^32 P-labeled RNA probe containing a high affinity Rev-binding site was incubated with purified E. coli derived Rev protein in the presence of various antibiotics. Binding of Rev to the RNA probe was quanitified by an RNA gel mobility shift assay.

[3] = Table 2, 2,5-Bis(3-amidinophenyl)furans, read-out: IC50 against Rev/RRE binding

Row | Compound | ability to inhibit Rev binding (inhibitory at any concentration tested) [2] | further results
1 | CN(C)CCCCNC(=N)c1cccc(-c2ccc(-c3cccc(C(=N)NCCCCN(C)C)c3)o2)c1 [Example 17, 2,5-Bis[3-(4-N,N-dimethylaminobutyl-amidino)phenyl]furan] | – | IC50 [1, 3]: 1700 nM
2 | CC1CCCCN1CCCNC(=N)c1cccc(-c2ccc(-c3cccc(C(=N)NCCCN4CCCCC4C)c3)s2)c1 (stereo not shown) [Example 25, 2,5-Bis{3-[3-(2-methylpiperidino)-propylamidino]phenyl}thiophene] | – | IC50 ([1]; Table 3, 2,5-Bis(3-bisamidinophenyl)thiophene, read-out: IC50 against Rev/RRE binding): 4000 nM
3 | NC[C@@H]1O[C@H](O[C@H]2[C@@H](O)[C@H](O[C@@H]3[C@@H](O)[C@H](N)C[C@H](N)[C@H]3O[C@H]3O[C@H](CO)[C@@H](O)[C@H](O)[C@H]3N)O[C@@H]2CO)[C@H](N)[C@@H](O)[C@@H]1O [paromomycin] | no inhibitory activity at any concentration tested; also recorded: completely inactive | –
4 | vineomycin | no | –
5 | CN[C@@H]1[C@H](O)[C@H](NC)[C@H]2O[C@@]3(O)C(=O)C[C@@H](C)O[C@H]3O[C@@H]2[C@H]1O [specitinomycin] | no inhibitory activity at any concentration tested | ability to inhibit Rev binding (inhibitory at any concentration tested) ([2]; listed as spectinoymycin): inactive
6 | CN(C)[C@@H]1C(=O)C(C(N)=O)=C(O)[C@@]2(O)C(=O)C3=C(O)c4c(O)cccc4[C@@](C)(O)[C@H]3C[C@@H]12 [tetracycline] | no | –
7 | c1cc(C2=NCCN2)cc(-c2ccc(-c3cccc(C4=NCCN4)c3)o2)c1 [Example 19, 2,5-Bis(3-imidazolinophenyl)furan] | – | IC50 [1, 3]: 4000 nM
8 | CN(C)CCCNC(=N)c1cccc(-c2ccc(-c3cccc(C(=N)NCCCN(C)C)c3)o2)c1 [Example 15, 2,5-Bis [3-(3-N,N-dimethylaminopropylamidino)phenyl]furan] | – | IC50 ([1]; FIG. 2, 150 mM KCl, 100-fold molar excess of tRNA, read-out: IC50 (concentration required to inhibit 50% Rev-RRE binding)): 1000 nM
9 | CC[C@H]1OC(=O)[C@H](C)[C@@H](O[C@H]2C[C@@](C)(OC)[C@@H](O)[C@H](C)O2)[C@H](C)[C@@H](O[C@@H]2O[C@H](C)C[C@H](N(C)C)[C@H]2O)[C@](C)(O)C[C@@H](C)C(=O)[C@H](C)[C@@H](O)[C@]1(C)O [erythromycin] | no | –
10 | Cn1cc(NC(=O)c2cc(NC(=O)c3cc(NC=O)cn3C)cn2C)cc1C(=O)NCCC(=N)N [distamycin A] | no | –
11 | O=C(N[C@H](CO)[C@H](O)c1ccc([N+](=O)[O-])cc1)C(Cl)Cl [chloramphenicol] | no | –
12 | NC[C@H]1O[C@H](O[C@H]2[C@H](O)[C@@H](O)[C@H](N)C[C@@H]2N)[C@H](N)[C@@H](O)[C@@H]1O [neamine] | – | concentration at which inhibitory to Rev binding ([2]; 67-nt RNA probe): 100 μm; inhibiting the binding of Rev to the RRE [2]: effective
13 | CCC[C@@H]1C[C@@H](C(=O)N[C@@H]([C@H]2O[C@H](SC)[C@H](O)[C@@H](O)[C@H]2O)[C@@H](C)O)N(C)C1 [lincomycin] | no | –
14 | CN[C@@H]1[C@@H](O)[C@@H](O[C@@H]2[C@@H](O)[C@H](O[C@H]3OC(CN)=CC[C@H]3N)[C@@H](N)C[C@H]2N)OC[C@]1(C)O [sisomicin] | – | concentration at which inhibitory to Rev binding ([2]; 67-nt RNA probe): 100 μm; inhibiting the binding of Rev to the RRE [2]: effective
15 | butirosin | no inhibitory activity at any concentration tested | –
16 | CN[C@H]1C[C@@H](N)[C@H](O)[C@@H](O[C@@H]2O[C@H](CO)[C@H](O)[C@@H]3OC4(O[C@H]23)O[C@H]([C@@H](N)CO)[C@H](O)[C@H](O)[C@H]4O)[C@@H]1O (stereo partly shown) [hygromyoin B, hygromycin B] | no inhibitory activity at any concentration tested | –
17 | capreomycin | no | –
18 | thiostreption | no | –

Row | Compound | ability to inhibit Rev binding (inhibitory at any concentration tested) [2] | further results
19 | CCN(CC)CCCNC(=N)c1cccc(-c2ccc(-c3cccc(C(=N)NCCCN(CC)CC)c3)o2)c1 [Example 16, 2,5-Bis[3-N,N-diethylaminopropylamidinophenyl]furan] | – | IC50 [1, 3]: 750 nM
20 | NCC[C@H](O)C(=O)N[C@@H]1C[C@H](N)[C@@H](O[C@H]2O[C@H](CN)[C@@H](O)[C@H](O)[C@H]2O)[C@H](O)[C@H]1O[C@H]1O[C@H](CO)[C@@H](O)[C@H](N)[C@H]1O [amikacin] | – | concentration at which inhibitory to Rev binding ([2]; 67-nt RNA probe): 100 μm; inhibiting the binding of Rev to the RRE [2]: effective
21 | [H]/N=C(/N)N[C@H]1[C@H](O)[C@@H](O)[C@H](O[C@@H]2O[C@@H](C)[C@](O)(C=O)[C@H]2O[C@@H]2O[C@@H](CO)[C@H](O)[C@@H](O)[C@@H]2NC)[C@@H](N/C(N)=N\[H])[C@@H]1O [stretomycin, streptomycin] | no inhibitory activity at any concentration tested | ability to inhibit Rev binding (inhibitory at any concentration tested) ([2]; listed as streptomycin): inactive
22 | N=C(NCc1cccnc1)c1cccc(-c2ccc(-c3cccc(C(=N)NCc4cccnc4)c3)s2)c1 [Example 20, 2,5-Bis[3-pyridylmethylamidinophenyl]thiophene] | – | IC50 against Rev/RRE binding ([1]; Table 3, 2,5-Bis(3-bisamidinophenyl)thiophene): not active
23 | CN(C)CCCCCCNC(=N)c1cccc(-c2ccc(-c3cccc(C(=N)NCCCCCCN(C)C)c3)o2)c1 [Example 18, 2,5-Bis[3-(6-N,N-dimethylaminohexylamidino)phenyl]furan] | – | IC50 [1, 3]: 3900 nM
24 | CN[C@@H]1[C@H](O[C@H]2[C@H](O[C@H]3[C@H](O)[C@@H](O)[C@H](NC(=N)N)[C@@H](O)[C@@H]3NC(=N)N)O[C@@H](C)[C@]2(O)CO)O[C@@H](CO)[C@H](O)[C@H]1O [dihydrostreptomycin] | no inhibitory activity at any concentration tested | –
25 | CCC[C@@H]1C[C@@H](C(=O)N[C@@H]([C@H]2O[C@H](SC)[C@H](O)[C@@H](O)[C@H]2O)[C@H](C)Cl)N(C)C1 [clindamycin A] | no | –
26 | C[C@H]1O[C@H](O[C@H]2[C@H](O)[C@@H](O)[C@@H](O)[C@H](O)[C@@H]2O)[C@@H](N)C[C@@H]1NC(=N)C(=O)O [kasugamycin] | no inhibitory activity at any concentration tested | –
27 | NCCC[C@H](N)CC(=O)N[C@H]1CNC(=O)[C@H]([C@H]2C[C@H](O)NC(N)=N2)NC(=O)/C(=C/NC(N)=O)NC(=O)[C@H](CO)NC(=O)[C@H](CO)NC1=O [viomycin] (β3hOrn-[Dap]SS[ΔAla(Z-3-ureido)][X1]; lactam 1-C) | no | –
28 | olivomycin | no | –
29 | tunicamycin | no | –
30 | NC[C@H]1O[C@H](O[C@H]2[C@H](O[C@@H]3O[C@H](CO)[C@@H](O)[C@H]3O)[C@@H](O)[C@H](N)C[C@@H]2N)[C@H](N)[C@@H](O)[C@@H]1O [ribostamycin] | – | concentration at which inhibitory to Rev binding ([2]; 67-nt RNA probe): 100 μm; inhibiting the binding of Rev to the RRE [2]: effective
31 | CC1(C)S[C@@H]2[C@H](NC(=O)C(C(=O)O)c3ccccc3)C(=O)N2[C@H]1C(=O)O (stereo partly shown) [carbenicilin] | no | –
32 | NC[C@H]1O[C@H](O[C@H]2[C@H](O)[C@@H](O[C@H]3O[C@H](CO)[C@@H](O)[C@H](N)[C@H]3O)[C@H](N)C[C@@H]2N)[C@H](N)[C@@H](O)[C@@H]1O [kanamycin B] | – | concentration at which inhibitory to Rev binding ([2]; 67-nt RNA probe): 100 μm; inhibiting the binding of Rev to the RRE [2]: effective
33 | CC1(C)S[C@@H]2[C@H](NC(=O)[C@H](N)c3ccccc3)C(=O)N2[C@H]1C(=O)O [ampicilin] | no | –
34 | NC[C@@H]1O[C@H](O[C@H]2[C@@H](O)[C@H](O[C@@H]3[C@@H](O)[C@H](N)C[C@H](N)[C@H]3O[C@H]3O[C@H](CO)[C@@H](O)C[C@H]3N)O[C@@H]2CO)[C@H](N)[C@@H](O)[C@@H]1O[C@H]1O[C@H](CO)[C@@H](O)[C@H](O)[C@@H]1O [lividomycin A] | significant inhibitory ability | concentration that achieves inhibition of Rev binding ([2]; 67-nt RNA probe, neomycin B: complete inhibition): 10 µM; inhibiting the binding of Rev to the RRE [2]: exceptional inhibitory potential
35 | chromomycin A | no | –
36 | gentamicin C | – | concentration at which inhibitory to Rev binding ([2]; 67-nt RNA probe): 100 μm; inhibiting the binding of Rev to the RRE [2]: effective
